Results on 1 molecule are retold here after US20230218774A1, “DRUG ANTIBODY CONJUGATES” (PHARMA MAR, S.A., priority 2019, published 2023).

Holding throughout (format): cell-based
Assay [1] deals with SK-BR-3 (breast cancer, HER2+). The experiment in a line: SRB colorimetric cytotoxicity assay, SK-BR-3. As to conditions: Homo sapiens, SK-BR-3, 72 h. The text has this: (§1) The aim of the assay was to evaluate the in vitro cytostatic (ability to delay or arrest tumor cell growth) or cytotoxic (ability to kill tumor cells) activity of the samples being tested.
(§2) The following human tumor cell lines were obtained from the American Type Culture Collection (ATCC): SK-BR-3 (ATCC HB-30), HCC-1954 (ATCC CRL-2338) (both being breast cancer, HER2+), MDA-MB-231 (ATCC HTB-26), MCF-7 (ATCC HTB-22) (both being breast cancer, HER2−).
(§3) For SK-BR-3, HCC-1954, MDA-MB-231 and MCF-7 cells, a colorimetric assay using Sulforhodamine B (SRB) was adapted for quantitative measurement of cell growth and cytotoxicity, as described by V. Vichai and K. Kirtikara. In “Sulforhodamine B colorimetric assay for cytotoxicity screening”, Nature Protocols, 2006, 1: 1112-1116. Briefly, cells were seeded in 96-well microtiter plates and allowed to stand for 24 hours in drug-free medium before treatment with vehicle alone or with the tested substances for 72 hours. For quantification, cells were washed twice with phosphate buffered saline (PBS), fixed for 15 min in 1% glutaraldehyde solution, rinsed twice with PBS, stained in 0.4% (w/v) SRB with 1% (v/v) acetic acid solution for 30 min, rinsed several times with 1% acetic acid solution and air-dried.
(§4) Cell survival was expressed in all cases as percentage of control, untreated cell survival. […]

The test system of assay [2] is HCC-1954 (breast cancer, HER2+). The experiment in a line: SRB colorimetric cytotoxicity assay, HCC-1954. Conditions: Homo sapiens, HCC1954, 72 h.
From the text: as §1, §2, §3, §4

Assay [3] deals with MDA-MB-231 (breast cancer, HER2−). The experiment in a line: SRB colorimetric cytotoxicity assay, MDA-MB-231. As to conditions: Homo sapiens, MDA-MB-231, 72 h.
From the text: as §1, §2, §3, §4

For assay [4], the system named is MCF-7 (breast cancer, HER2−). The experiment in a line: SRB colorimetric cytotoxicity assay, MCF-7. Conditions: Homo sapiens, MCF7, 72 h.
From the text: as §1, §2, §3, §4

Molecules are shown by their SMILES. Several values for one entry are separate records, joined by “and”; a condition that tells them apart may be missing. Identical values can stand only once.

As a reminder, the IC50 is the point on the concentration scale where inhibition reaches its midpoint. Low readings indicate greater potency in that assay, high ones weaker potency in that assay. With `C=C1C[C@](OC)([C@H](O)C(=O)N[C@@H](OC)[C@@H]2C[C@@H](O)C(C)(C)[C@@H](C[C@@H](COC(=O)NCCCNC(=O)CCCCCN3C(=O)C=CC3=O)OC)O2)O[C@H](C)[C@@H]1C` (racemic) [DL-2], the IC50 is 0.108 µg/mL and 138 nM in assay [1]; 0.076 µg/mL and 97.1 nM in assay [2]; 0.0652 µg/mL and 83.3 nM in assay [3]; 0.0759 µg/mL and 97 nM in assay [4].
